{"source": "patent US20230235409A1", "about": "“METHOD OF PREDICTING THERAPEUTIC RESPONSE AND PROGNOSIS OF METASTATIC BREAST CANCER TO CHEMOTHERAPEUTIC AGENTS, AND TREATING METASTATIC BREAST CANCER” (Samsung Life Public Welfare Foundation, priority 2021, published 2023)", "tested_on": "premenopausal HR+/HER2− metastatic breast cancer", "assay": "Kaplan Meier PFS analysis of capecitabine-treated patients by five-gene marker combination", "type": "in vivo", "experimental": "Among 141 premenopausal HR+/HER2− MBC patients, a tumor sample was isolated from a group (n=62) administered with capecitabine, and sequencing was performed on the sample. CancerSCAN™ targeted panel sequencing was performed to detect 375 cancer-related gene variations, and transcriptome analysis was performed to detect overall gene expression patterns.\nA univariate Cox proportional hazard model was analyzed for each genetic variation/CNV, the p-value derived by the log-rank test was defined as a p-value cutoff of 0.05 as the criterion for a statistically significant difference, and 30 biomarkers with p-value<0.05 were selected as candidate markers. […] In other words, the description of “NF2+FAT3” includes the case where there exists a mutation in either NF2 or FAT3 gene.", "data": [{"smiles": "CCCCCOC(=O)Nc1nc(=O)n([C@@H]2O[C@H](C)[C@@H](O)[C@H]2O)cc1F", "note": "[capecitabine]", "values": [{"measurement": "median PFS", "setting": "mutant group (mutation in NF2, FAT3, LRP1B, PTEN or RAD50), capecitabine-administered group n=62, FIG. 3", "value": 12, "unit": "months"}, {"measurement": "risk of mutant group relative to normal group (WT), PFS", "setting": "mutant group vs WT (no mutation in all five genes), capecitabine-administered patients, FIG. 3", "value": "about 5 times"}]}]}
